Measured values as given in patent publication US12692254B2, “Benzimidazole inhibitors of PAD enzymes” (BRISTOL-MYERS SQUIBB COMPANY, priority 2018, dated 2026).

molecular target: human PAD4 (hPAD4) (Homo sapiens, UniProt Q9UM07); test: RFMS human PAD4 functional assay (rapid-fire mass spectrum); assay type: biochemical; settings: 5 nM hPAD4 enzyme, 250 μM BAEE, 50 μM Calcium; 30 min preincubation, 90 min reaction at 37° C.
Method in brief: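 PAD4 (10 nM) preincubated 30 min with compound (top final 50 μM), then BAEE substrate added in pH 7.5 HEPES buffer with DTT, 50 μM calcium, TPEN; 90 min at 37° C. After TCA quench, citrulline derivatized with phenyl glyoxal (4 mM final, 30 min, 37° C) and quantified by RapidFire MS against internal standard.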

Sequence of human PAD4 (hPAD4) (Q9UM07 whole entry): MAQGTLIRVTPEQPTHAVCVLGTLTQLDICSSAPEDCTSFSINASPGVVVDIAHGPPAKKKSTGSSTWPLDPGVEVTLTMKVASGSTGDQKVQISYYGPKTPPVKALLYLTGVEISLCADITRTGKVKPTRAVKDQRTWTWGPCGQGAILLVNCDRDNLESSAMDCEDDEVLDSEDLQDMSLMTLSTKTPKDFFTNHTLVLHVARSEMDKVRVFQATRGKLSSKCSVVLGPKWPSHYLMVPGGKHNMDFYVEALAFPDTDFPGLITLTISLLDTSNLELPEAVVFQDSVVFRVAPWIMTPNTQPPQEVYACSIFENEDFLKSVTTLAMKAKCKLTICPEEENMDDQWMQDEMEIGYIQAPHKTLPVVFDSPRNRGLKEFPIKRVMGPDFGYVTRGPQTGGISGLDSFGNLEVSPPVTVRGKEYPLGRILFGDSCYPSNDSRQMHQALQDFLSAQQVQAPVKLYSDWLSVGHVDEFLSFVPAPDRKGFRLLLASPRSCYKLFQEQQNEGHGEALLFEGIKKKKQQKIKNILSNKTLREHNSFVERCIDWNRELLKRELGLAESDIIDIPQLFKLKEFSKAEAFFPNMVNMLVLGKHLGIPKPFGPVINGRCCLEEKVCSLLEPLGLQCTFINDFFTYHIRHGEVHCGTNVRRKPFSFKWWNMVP

SMILES	IC50
COc1cc(C(=O)N2C[C@H](N)C[C@@H](F)C2)cc2nc(-c3cc4ccccc4n3CC3CC3)n(CC3CC3)c12 [Example 480, (3R,5R)-1-[1-(cyclopropylmethyl)-2-[1-(cyclopropylmethyl)-1H-indol-2-yl]-7-methoxy-1H-1,3-benzodiazole-5-carbonyl]-5-fluoropiperidin-3-amine]	301 nM
CCn1cc(Cn2c(-c3cc4ccccc4n3CC3CC3)nc3cc(C(=O)N4CC5CCC4[C@@H]5N)cc(OC)c32)cn1 (stereo partly drawn) [Example 481, (7R)-2-{2-[1-(cyclopropylmethyl)-1H-indol-2-yl]-1-[(1-ethyl-1H-pyrazol-4-yl)methyl]-7-methoxy-1H-1,3-benzodiazole-5-carbonyl}-2-azabicyclo[2.2.1]heptan-7-amine]	20 nM
COc1cc(C(=O)N2CC3CCC2[C@@H]3N)cc2nc(-c3cc4ccccc4n3CC3CC3)n(Cc3cnn(C)c3C)c12 (stereo partly drawn) [Example 482, (7R)-2-{2-[1-(cyclopropylmethyl)-1H-indol-2-yl]-1-[(1,5-dimethyl-1H-pyrazol-4-yl)methyl]-7-methoxy-1H-1,3-benzodiazole-5-carbonyl}-2-azabicyclo[2.2.1]heptan-7-amine]	23 nM
Cn1cc(Cn2c(-c3cc4ccccc4n3CC3CC3)nc3cc(C(=O)N4CC5CCC4[C@@H]5N)cc(F)c32)cn1 (stereo partly drawn) [Example 483, (7R)-2-{2-[1-(cyclopropylmethyl)-1H-indol-2-yl]-7-fluoro-1-[(1-methyl-1H-pyrazol-4-yl)methyl]-1H-1,3-benzodiazole-5-carbonyl}-2-azabicyclo[2.2.1]heptan-7-amine]	30 nM
Cn1cc(Cn2c(-c3cc4ccccc4n3CC3CC3)nc3cc(C(=O)N4CC5CCC4[C@@H]5N)cc(Cl)c32)cn1 (stereo partly drawn) [Example 484, (7R)-2-{7-chloro-2-[1-(cyclopropylmethyl)-1H-indol-2-yl]-1-[(1-methyl-1H-pyrazol-4-yl)methyl]-1H-1,3-benzodiazole-5-carbonyl}-2-azabicyclo[2.2.1]heptan-7-amine]	30 nM
COc1cc(C(=O)N2CC3CCC2[C@@H]3N)cc2nc(-c3cc4cccnc4n3CC3CC3)n(Cc3cn[nH]n3)c12 (stereo partly drawn) [Example 485, (7R)-2-{2-[1-(cyclopropylmethyl)-1H-pyrrolo[2,3-b]pyridin-2-yl]-7-methoxy-1-[(2H-1,2,3-triazol-4-yl)methyl]-1H-1,3-benzodiazole-5-carbonyl}-2-azabicyclo[2.2.1]heptan-7-amine]	47 nM
COc1cc(C(=O)N2CC3CCC2[C@@H]3N)cc2nc(-c3cc4cccnc4n3CC3CC3)n(Cc3cnn(C)c3C)c12 (stereo partly drawn) [Example 486, (7R)-2-{2-[1-(cyclopropylmethyl)-1H-pyrrolo[2,3-b]pyridin-2-yl]-l-[(1,5-dimethyl-1H-pyrazol-4-yl)methyl]-7-methoxy-1H-1,3-benzodiazole-5-carbonyl}-2-azabicyclo[2.2.1]heptan-7-amine]	45 nM
CCn1cc(Cn2c(-c3cc4ccccc4n3CC3CC3)nc3cc(C(=O)N4C[C@H](N)C[C@@H](F)C4)cc(OC)c32)cn1 [Example 487, (3R,5R)-1-{2-[1-(cyclopropylmethyl)-1H-indol-2-yl]-1-[(1-ethyl-1H-pyrazol-4-yl)methyl]-7-methoxy-1H-1,3-benzodiazole-5-carbonyl}-5-fluoropiperidin-3-amine]	46 nM
COc1cc(C(=O)N2CC3CCC2[C@@H]3N)cc2nc(-c3cc4cccnc4n3CC3CC3)n(Cc3cn[nH]c3)c12 (stereo partly drawn) [Example 488, (7R)-2-{2-[1-(cyclopropylmethyl)-1H-pyrrolo[2,3-b]pyridin-2-yl]-7-methoxy-1-[(1H-pyrazol-4-yl)methyl]-1H-1,3-benzodiazole-5-carbonyl}-2-azabicyclo[2.2.1]heptan-7-amine]	55 nM
CCn1cc(Cn2c(-c3cc4cccnc4n3CC3CC3)nc3cc(C(=O)N4CC5CCC4[C@@H]5N)cc(OC)c32)cn1 (stereo partly drawn) [Example 489, (7R)-2-{2-[1-(cyclopropylmethyl)-1H-pyrrolo[2,3-b]pyridin-2-yl]-1-[(1-ethyl-1H-pyrazol-4-yl)methyl]-7-methoxy-1H-1,3-benzodiazole-5-carbonyl}-2-azabicyclo[2.2.1]heptan-7-amine]	55 nM
COc1cc(C(=O)N2CC3CCC2[C@@H]3N)cc2nc(-c3cc4ccccc4n3CC3CC3)n(Cc3cn[nH]n3)c12 (stereo partly drawn) [Example 490, (7R)-2-{2-[1-(cyclopropylmethyl)-1H-indol-2-yl]-7-methoxy-1-[(2H-1,2,3-triazol-4-yl)methyl]-1H-1,3-benzodiazole-5-carbonyl}-2-azabicyclo[2.2.1]heptan-7-amine]	58 nM
Cn1cc(Cn2c(-c3cc4cccnc4n3CC3CC3)nc3cc(C(=O)N4CC5CCC4[C@@H]5N)cc(F)c32)cn1 (stereo partly drawn) [Example 491, (7R)-2-{2-[1-(cyclopropylmethyl)-1H-pyrrolo[2,3-b]pyridin-2-yl]-7-fluoro-1-[(1-methyl-1H-pyrazol-4-yl)methyl]-1H-1,3-benzodiazole-5-carbonyl}-2-azabicyclo[2.2.1]heptan-7-amine]	57 nM
COc1cc(C(=O)N2CC3CCC2[C@@H]3N)cc2nc(-c3cc4ccccc4n3CC3CC3)n(Cc3cn(C)nc3C)c12 (stereo partly drawn) [Example 492, (7R)-2-{2-[1-(cyclopropylmethyl)-1H-indol-2-yl]-1-[(1,3-dimethyl-1H-pyrazol-4-yl)methyl]-7-methoxy-1H-1,3-benzodiazole-5-carbonyl}-2-azabicyclo[2.2.1]heptan-7-amine]	78 nM

The remaining lines, values ahead:

IC50	SMILES
83 nM	Cn1cc(Cn2c(-c3cc4cccnc4n3CC3CC3)nc3cc(C(=O)N4CC5CCC4[C@@H]5N)cc(Cl)c32)cn1 (stereo partly drawn) [Example 493, (7R)-2-{7-chloro-2-[1-(cyclopropylmethyl)-1H-pyrrolo[2,3-b]pyridin-2-yl]-1-[(1-methyl-1H-pyrazol-4-yl)methyl]-1H-1,3-benzodiazole-5-carbonyl}-2-azabicyclo[2.2.1]heptan-7-amine]
86 nM	COc1cc(C(=O)N2CC3CCC2[C@@H]3N)cc2nc(-c3cc4cccnc4n3CC3CC3)n(Cc3cc(C)nn3C)c12 (stereo partly drawn) [Example 494, (7R)-2-{2-[1-(cyclopropylmethyl)-1H-pyrrolo[2,3-b]pyridin-2-yl]-1-[(1,3-dimethyl-1H-pyrazol-5-yl)methyl]-7-methoxy-1H-1,3-benzodiazole-5-carbonyl}-2-azabicyclo[2.2.1]heptan-7-amine]
88 nM	COc1cc(C(=O)N2CC3CCC2[C@@H]3N)cc2nc(-c3cc4ccccc4n3CC(F)(F)F)n(Cc3cnn(C)c3)c12 (stereo partly drawn) [Example 495, (7R)-2-{7-methoxy-1-[(1-methyl-1H-pyrazol-4-yl)methyl]-2-[1-(2,2,2-trifluoroethyl)-1H-indol-2-yl]-1H-1,3-benzodiazole-5-carbonyl}-2-azabicyclo[2.2.1]heptan-7-amine]
102 nM	COc1cc(C(=O)N2CC3CCC2[C@@H]3N)cc2nc(-c3cc4cccnc4n3CC3CC3)n(Cc3ccnn3C)c12 (stereo partly drawn) [Example 496, (7R)-2-{2-[1-(cyclopropylmethyl)-1H-pyrrolo[2,3-b]pyridin-2-yl]-7-methoxy-1-[(1-methyl-1H-pyrazol-5-yl)methyl]-1H-1,3-benzodiazole-5-carbonyl}-2-azabicyclo[2.2.1]heptan-7-amine]
109 nM	COc1cc(C(=O)N2CC3CCC2[C@@H]3N)cc2nc(-c3cc4cccnc4n3CC3CC3)n(Cc3cn(C)nc3C)c12 (stereo partly drawn) [Example 497, (7R)-2-{2-[1-(cyclopropylmethyl)-1H-pyrrolo[2,3-b]pyridin-2-yl]-1-[(1,3-dimethyl-1H-pyrazol-4-yl)methyl]-7-methoxy-1H-1,3-benzodiazole-5-carbonyl}-2-azabicyclo[2.2.1]heptan-7-amine]
92 nM	COc1cc(C(=O)N2CC3CCC2[C@@H]3N)cc2nc(-c3cc4ccccc4n3CC3CC3)n(Cc3ccn(C)n3)c12 (stereo partly drawn) [Example 498, (7R)-2-{2-[1-(cyclopropylmethyl)-1H-indol-2-yl]-7-methoxy-1-[(1-methyl-1H-pyrazol-3-yl)methyl]-1H-1,3-benzodiazole-5-carbonyl}-2-azabicyclo[2.2.1]heptan-7-amine]
125 nM	COc1cc(C(=O)N2CC3CCC2[C@@H]3N)cc2nc(-c3cc4cccnc4n3CC3CC3)n(Cc3ccn(C)n3)c12 (stereo partly drawn) [Example 499, (7R)-2-{2-[1-(cyclopropylmethyl)-1H-pyrrolo[2,3-b]pyridin-2-yl]-7-methoxy-1-[(1-methyl-1H-pyrazol-3-yl)methyl]-1H-1,3-benzodiazole-5-carbonyl}-2-azabicyclo[2.2.1]heptan-7-amine]
127 nM	COc1cc(C(=O)N2C[C@H](N)C[C@@H](F)C2)cc2nc(-c3cc4cccnc4n3CC3CC3)n(Cc3cn[nH]c3)c12 [Example 500, (3R,5R)-1-{2-[1-(cyclopropylmethyl)-1H-pyrrolo[2,3-b]pyridin-2-yl]-7-methoxy-1-[(1H-pyrazol-4-yl)methyl]-1H-1,3-benzodiazole-5-carbonyl}-5-fluoropiperidin-3-amine]
136 nM	CCn1cc(Cn2c(-c3cc4cccnc4n3CC3CC3)nc3cc(C(=O)N4C[C@H](N)C[C@@H](F)C4)cc(OC)c32)cn1 [Example 501, (3R,5R)-1-{2-[1-(cyclopropylmethyl)-1H-pyrrolo[2,3-b]pyridin-2-yl]-1-[(1-ethyl-1H-pyrazol-4-yl)methyl]-7-methoxy-1H-1,3-benzodiazole-5-carbonyl}-5-fluoropiperidin-3-amine]
146 nM	COc1cc(C(=O)N2CC3CCC2[C@@H]3N)cc2nc(-c3cc4ccccc4n3CC(F)F)n(Cc3cnn(C)c3)c12 (stereo partly drawn) [Example 502, (7R)-2-{2-[1-(2,2-difluoroethyl)-1H-indol-2-yl]-7-methoxy-1-[(1-methyl-1H-pyrazol-4-yl)methyl]-1H-1,3-benzodiazole-5-carbonyl}-2-azabicyclo[2.2.1]heptan-7-amine]
149 nM	COc1cc(C(=O)N2CC3CCC2[C@@H]3N)cc2nc(-c3cc4ccccc4n3CC3CC3)n(Cc3cn(C)nn3)c12 (stereo partly drawn) [Example 503, (7R)-2-{2-[1-(cyclopropylmethyl)-1H-indol-2-yl]-7-methoxy-1-[(1-methyl-1H-1,2,3-triazol-4-yl)methyl]-1H-1,3-benzodiazole-5-carbonyl}-2-azabicyclo[2.2.1]heptan-7-amine]
